Results as given in US20140171510A1, “HO[…] AND/OR CONJUGATES OF AMPHETAMINE AND OTHER […] PROCESSES FOR MAKING AND USING THE SAME” (priority 2011, published 2014).

Key:
[1] = Intravenous study in rats, plasma d-amphetamine by ELISA (Example 8); conditions: for Tmax: d-amphetamine in plasma, […] equivalent; for % Tmax: relative to d-amp
[2] = Intranasal study in rats, plasma d-amphetamine by ELISA (Example 7); conditions: for % Tmax: relative to d-amp
[3] = Oral PK of hArg-Amp-2HCl and Lys-Amp in rats (Example 9); conditions: for AUC0-24 h of d-amphetamine: equimolar doses (hArg-Amp-2HCl […], Lys-Amp 5.05 mg/kg)
[4] = Single-dose crossover oral PK study of hArg-Amp-2HCl and Lys-Amp in humans (Example 10); conditions: for AUC0-24 h of d-amphetamine: fasted, Vyvanse 30 mg (d-amphetamine equivalent dosages); for plasma concentrations of intact prodrug: 25 mg hArg-Amp-2HCl or same molar dose, lower limit of quantitation 1.00 ng/mL
[5] = pH of the prodrug in deionized water at various concentrations; assay type: physicochemical
From the text: In a preferred embodiment, the homoarginine amphetamine prodrug comprises a dihydrochloride salt of homoarginine amphetamine. The pH of this prodrug in deionized water at various concentrations is as follows: […]

[6] = Oral gavage PK study of hArg-Amp vs Lys-Amp in rats, plasma d-amphetamine by ELISA (Example 6); conditions: relative to Lys-Amp
[7] = Average results of oral studies in rats (Table 3); assay type: in vivo; conditions: for % Tmax: average of oral studies in rats, relative to Lys-Amp
[8] = Parenteral (intranasal, intravenous) administration in rats, release of amphetamine (Example 1); conditions: parental routes (intranasal, intravenous)
[9] = Oral PK of hArg-Amp-2HCl and Lys-Amp in dogs (Example 9)
[10] = oral solution, equimolar doses (4.20 and 5.05 mg/kg)
[11] = oral solution, hArg-Amp-2HCl 25 mg
[12] = oral solution, hArg-Amp-2HCl 25 mg, Vyvanse 30 mg
[13] = equimolar doses (1.5 and 1.8 mg/kg)

Compound | Tmax [1] [m] | % Tmax [1] [%] | % Tmax [2] [%] | AUC0-24 h of intact prodrug [3, 10] [ng·h/mL] | Cmax of d-amphetamine [3, 10] [ng/mL] | Cmax of intact prodrug [3, 10] [ng/mL] | AUC0-24 h of d-amphetamine ([3]; oral solution) [ng·h/mL] | AUC0-24 h of d-amphetamine [4, 11] [ng·h/mL] | Cmax of d-amphetamine [4, 12] [ng/mL] | Tmax of intact prodrug [4, 12] [min] | % Tmax [6] [%] | % Tmax [7] | other results
C[C@H](N)Cc1ccccc1 [d-amp, d-amphetamine] | 5 | 100 | 100 |  |  |  |  |  |  |  |  |  | Tmax ([2]; d-amphetamine in plasma, […] equivalent, given in minutes): 5 m
C[C@@H](Cc1ccccc1)NC(=O)[C@@H](N)CCCCN=C(N)N.Cl.Cl [hArg-Amp-2HCl, l-homoarginine-d-amphetamine dihydrochloride] |  |  |  | 1.8 | 43.2 | 3.1 | 447.2 | 282.7 | 20.7 | 0 |  |  | Tmax of d-amphetamine, hArg-Amp-2HCl/Lys-Amp ([3]; oral): 150.0%; Tmax of intact prodrug, hArg-Amp-2HCl/Lys-Amp ([3]; oral): 100.0%^; Tmax of intact prodrug [3, 10]: 15 min; Tmax of d-amphetamine, hArg-Amp-2HCl/Lys-Amp ([4]; oral): 110.5%; Tmax of intact prodrug, hArg-Amp-2HCl/Lys-Amp ([4]; oral): 0%; pH ([5]; 0.1 mg/mL (0.3 mM) in deionized water): 6.15 ± 0.1; pH ([5]; 1.0 mg/mL ([…]) in deionized water): 5.40 ± 0.1; pH ([5]; 10 mg/mL (26.4 mM) in deionized water): 4.35 ± 0.1; pH ([5]; 100 mg/mL (264.3 mM) in deionized water): 3.30 ± 0.1
l-homoarginine-d-amphetamine [hArg-Amp] | 5 | 100 | 600 |  |  |  |  |  |  |  | 133 | 200-400% | Tmax of d-amphetamine [4, 12]: approximately three hours; plasma concentrations of intact prodrug ([4]; oral, listed as homoarginine amphetamine prodrug): ≤ 1.00 ng/mL; plasma concentrations of intact prodrug ([4]; oral, listed as homoarginine-amphetamine prodrug): below the detectable limit; period over which amphetamine is eliminated after the maximum plasma concentration ([4]; single oral dose of 25 mg): about 45 hours; Tmax ([7]; average of oral studies in rats (n = 30 per compound)): 120 to 240 min; release of amphetamine [8]: < 25%
l-lysine-d-amphetamine [Lys-Amp, reference compound] |  | 100 | 3600 | 74.9 | 71.5 | 90.2 | 596.4 | 421.9 | 30.0 | 36.6 | 100 | 100% | AUC0-24 h of intact prodrug [4, 12]: 19.4 ng·h/mL; Cmax of intact prodrug [4, 12]: 18.1 ng/mL; AUC0-24 h of intact prodrug [9, 13]: 285.8 ng·h/mL; Cmax of d-amphetamine [9, 13]: 95.4 ng/mL; Cmax of intact prodrug [9, 13]: 305.5 ng/mL; AUC0-24 h of d-amphetamine ([9]; equimolar doses (hArg-Amp-2HCl […], Lys-Amp 1.8 mg/kg)): 775.0 ng·h/mL
